PubChem BioAssay AID651653 (NMMLSC, 2012)
pEC50: −log10 of the molar value. Calls of active or inactive are those of the source.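 The calls were made as follows: active = viability at the top tested dose under 50% of the solvent-only control; inactive = the rest.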

How the values were obtained:
[1] = system: K562-ABCB6 viability, CellTiter-Glo luminescence, 18 h; assay: cytotoxicity in ABCB6-expressing K562 cells, dose response, cytotoxicity control for ABCB6 inhibitor project, cell-based, CellTiter-Glo luminescence, cherry picks 01-02 (AID 651653)
[2] = as above; conditions: K562-ABCB6 viability, CellTiter-Glo luminescence, 18 h; at 100 µM (top of the series)

## O=C(Nc1ccc(F)cc1)c1nc(S(=O)(=O)Cc2ccccc2)ncc1Cl
[1]
  pEC50: 5.81

## Cc1ccccc1CS(=O)(=O)c1ncc(Cl)c(C(=O)Nc2ccc(F)cc2)n1
[1]
  pEC50: 5.15

## CCOC(=O)c1ccc(NC(=O)c2nc(S(=O)(=O)Cc3ccccc3)ncc2Cl)cc1
[1]
  pEC50: 5.75

## Cc1ccc(CS(=O)(=O)c2ncc(Cl)c(C(=O)Nc3ccc(OC(F)F)cc3)n2)cc1
[1]
  pEC50: 5.45

## Cc1cccc(CS(=O)(=O)c2ncc(Cl)c(C(=O)Nc3ccc(F)cc3)n2)c1
[1]
  pEC50: 5.82

## Cc1ccc(NC(=O)c2nc(S(=O)(=O)Cc3ccccc3C)ncc2Cl)cc1C
[1]
  pEC50: 5.84

## COC(=O)c1ccc(NC(=O)c2nc(S(=O)(=O)Cc3cccc(C)c3)ncc2Cl)cc1
[1]
  pEC50: 6.16

## Cc1ccc(CS(=O)(=O)c2ncc(Cl)c(C(=O)Nc3nnc(C(C)C)s3)n2)cc1
[1]
  pEC50: 5.41

## CCCc1nnc(NC(=O)c2nc(S(=O)(=O)Cc3cccc(C)c3)ncc2Cl)s1
[2]
  viability: 65.4% (inactive)

## Cc1nnc(NC(=O)c2nc(S(=O)(=O)Cc3ccccc3)ncc2Cl)s1
[1]
  pEC50: 6.09

## Cc1cccc(CS(=O)(=O)c2ncc(Cl)c(C(=O)Nc3nnc(C(C)C)s3)n2)c1
[1]
  pEC50: 5.19

## CCOc1ccccc1NC(=O)c1nc(S(=O)(=O)Cc2ccccc2)ncc1Cl
[1]
  pEC50: 4.93

## Cc1ccc(NC(=O)c2nc(S(=O)(=O)Cc3ccccc3)ncc2Cl)cc1
[1]
  pEC50: 5.74

## CCc1ccc(NC(=O)c2nc(S(=O)(=O)Cc3ccccc3)ncc2Cl)cc1
[1]
  pEC50: 5.79

## Cc1cccc(C)c1NC(=O)c1nc(S(=O)(=O)Cc2ccccc2)ncc1Cl
[1]
  pEC50: 5.68

## CC(=O)Nc1ccc(NC(=O)c2nc(S(=O)(=O)Cc3cccc(C)c3)ncc2Cl)cc1
[1]
  pEC50: 5.72

## CCN(CC)S(=O)(=O)c1cccc(-n2c(O)c(C=Nc3ccccc3C(=O)O)c3ccccc3c2=O)c1
[1]
  pEC50: 4.88

## CC(=O)Nc1ccc(NC(=O)c2nc(S(=O)(=O)Cc3ccccc3)ncc2Cl)cc1
[1]
  pEC50: 5.92

## CCOc1ccccc1NC(=O)c1nc(S(=O)(=O)Cc2cccc(C)c2)ncc1Cl
[1]
  pEC50: 5.85

## C[N+](C)(C)CC1CCCC(C[N+](C)(C)C)C1=O (stereo not given)
[1]
  pEC50: 6.61
